Reference: patent US5798350A, “Dopamine receptor ligands” (Allelix Biopharmaceuticals, Inc., priority 1996, dated 1998)

Target: T1, human D2 receptor (short isoform) (Homo sapiens, UniProt P14416)
T1 construct: membrane homogenate, 3H-spiperone displacement
Assay: D2 receptor binding, displacement of 3H-spiperone (GH4C1 cells), for D2/D4 selectivity
Settings: D4 selectivity, ratio D2/D4
Method: The potency of the test compound to reduce ^3 H-spiperone binding directly correlated to its binding affinity for the receptor.
GH4 C1 (rat pituitary) cells stably transfected with the human D2 receptor (short isoform) were grown in CO2 independent media in roller bottles (1500 cm^2) for 10 days. 100 μM ZnSO4 was added to the cells (the D2 promoter being zinc inducible). After 16 hours, fresh media was added to allow the cells to recover for 24 hours. The cells were harvested using versene and then centrifuged in a Sorval centrifuge for 10 minutes, at 5000 rpm (GS3 rotor). Pellets were quickly frozen in liquid nitrogen and stored at -80° C. until used in the binding assays. When used in the assay, cells were thawed on ice for 20 minutes. […] 10 mL of incubation buffer was added to the pellets which were then vortexed, resuspended and homogenized with a Kinematica CH-6010 Kriens-LU homogenizer for 15 seconds at setting 7. The receptor protein concentration was determined using the Pierce BCA assay.
Total Spiperone Binding Assay
The incubation was started by the addition of 500 μl (50 μg protein) membrane homogenate to a solution of 900 μl incubation buffer and 100 μl (0.25 nM final conc.) ^3 H-spiperone (90 Ci/mmol Amersham diluted in borosilicate glass vial) in 12×75 mm polypropylene tubes. The tubes were vortexed and incubated at room temperature for 90 minutes. The binding reaction was stopped by filtering using a Brandell Cell Harvester. The samples were filtered under vacuum over glass fibre filters (Whatman GF/B) presoaked for 2 hours in 0.3% polyethyleneimine (PEI) in 50 mM Tris buffer (pH7.4). The filters were then washed 3 times with 5 mL ice cold 50 mM Tris buffer (pH7.4). Individual filter disks were put in scintillation vials (Biovials, Bechman). Ready Protein Plus liquid scintillant (5 mL, Beckman) was added and the vials counted by liquid scintillation spectrophotometry (Beckman LSC 6500) after equilibrating for three hours at room temperature to determine total binding (BT).
Non-Specific Binding Assay for D2
This assay employed the same procedures as the non-specific binding assay for D4 with the exception that 2 μM (final conc.) of (-) sulpiride (Research Chemicals Inc.) was used in place of dopamine.
Displacement Binding Assay
The incubation was started by the addition to 12×75 mm polypropylene tubes 500 μl (50 μg protein) membrane homogenate to a solution of 400 μl incubation buffer, 100 μl (0.25 final conc.) ^3 H-spiperone (90Ci/mmol, Amersham, diluted in borosilicate glass vial to) and […] of test compound that was prepared from 1 mM stock dissolved in DMSO and stored at -20° C. in polypropylene cryogenic storage vials until dilution in incubation buffer in borosilicate glass vials. The tubes were vortexed and incubated at room temperature for 90 minutes at which time the binding reaction was stopped by filtering. The filters were washed and counted using the same procedure as in the total binding assay described above to give the displacement binding value (BD).
Specific binding in the absence of test compound (BO) was the difference of total binding (BT) minus non-specific binding (NSB) and similarly specific binding (in the presence of test compound) (B) was the difference of displacement binding (BD) minus non-specific binding (NSB). IC50 was determined from an inhibition response curve, logit-log plot of %B/BO vs concentration of test compound.
Ki was calculated by the Cheng and Prustoff transformation: […]
where [L] is the concentration of ^3 H-spiperone used in the assay and KD is the to dissociation constant of ^3 H-spiperone determined independently under the same binding conditions.

T1 sequence (P14416 with tags, fused parts or gaps DEL242-270): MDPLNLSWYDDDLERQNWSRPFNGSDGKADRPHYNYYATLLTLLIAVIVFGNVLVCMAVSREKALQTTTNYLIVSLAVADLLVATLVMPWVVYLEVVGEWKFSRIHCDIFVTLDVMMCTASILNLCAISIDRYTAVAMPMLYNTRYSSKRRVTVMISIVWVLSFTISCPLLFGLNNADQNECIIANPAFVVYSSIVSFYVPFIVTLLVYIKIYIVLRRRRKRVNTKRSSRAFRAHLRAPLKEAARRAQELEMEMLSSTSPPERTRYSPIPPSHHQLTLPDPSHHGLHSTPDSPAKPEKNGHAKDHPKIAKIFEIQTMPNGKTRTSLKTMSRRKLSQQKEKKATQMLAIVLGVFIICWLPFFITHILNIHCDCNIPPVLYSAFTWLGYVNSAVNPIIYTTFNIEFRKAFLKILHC

D2/D4	Compound
15.9	Clc1ccc2c(c1)C=C(N1CCN(Cc3ccc4c(c3)OCO4)CC1)c1ccccc1S2 [2-chloro-10-(4-piperonyl-1-piperazinyl)dibenzo[b,f]thiepine]
24.9	Clc1ccc2c(c1)Nc1ccccc1N=C2N1CCN(Cc2ccc3c(c2)OCO3)CC1 [3-chloro-11-(4-piperonyl-1-piperazinyl)-5H-dibenzo[b,e][1,4]diazepine]
23.8	Clc1ccc2c(c1)N=C(N1CCN(Cc3ccc4c(c3)OCO4)CC1)c1ccccc1O2 [8-chloro-11-(4-piperonyl)-1-piperazinyl)dibenz[b,f][1,4]oxazepine]
32.7	c1ccc2c(c1)N=C(N1CCN(Cc3ccc4c(c3)OCO4)CC1)c1ccccc1O2 [11-(4-piperonyl)-1-piperazinyl)-dibenz[b,f][1,4]oxazepine]

Same assay, conditions: compared with clozapine

D4 selectivity	Compound
better D4 selectivity than clozapine	Clc1ccc2c(c1)C=C(N1CCN(Cc3ccc4c(c3)OCO4)CC1)c1ccccc1S2 [2-chloro-10-(4-piperonyl-1-piperazinyl)dibenzo[b,f]thiepine]
better D4 selectivity than clozapine	Clc1ccc2c(c1)Nc1ccccc1N=C2N1CCN(Cc2ccc3c(c2)OCO3)CC1 [3-chloro-11-(4-piperonyl-1-piperazinyl)-5H-dibenzo[b,e][1,4]diazepine]
better D4 selectivity than clozapine	Clc1ccc2c(c1)N=C(N1CCN(Cc3ccc4c(c3)OCO4)CC1)c1ccccc1O2 [8-chloro-11-(4-piperonyl)-1-piperazinyl)dibenz[b,f][1,4]oxazepine]
better D4 selectivity than clozapine	c1ccc2c(c1)N=C(N1CCN(Cc3ccc4c(c3)OCO4)CC1)c1ccccc1O2 [11-(4-piperonyl)-1-piperazinyl)-dibenz[b,f][1,4]oxazepine]

Same assay, conditions: compared with corresponding 4-methyl piperazine compound

Compound	D4 selectivity
Clc1ccc2c(c1)N=C(N1CCN(Cc3ccc4c(c3)OCO4)CC1)c1ccccc1O2 [8-chloro-11-(4-piperonyl)-1-piperazinyl)dibenz[b,f][1,4]oxazepine]	better D4selectivity than the corresponding 4-methyl piperazine compound
c1ccc2c(c1)N=C(N1CCN(Cc3ccc4c(c3)OCO4)CC1)c1ccccc1O2 [11-(4-piperonyl)-1-piperazinyl)-dibenz[b,f][1,4]oxazepine]	better D4selectivity than the corresponding 4-methyl piperazine compound
